Test results reported in patent US20210315841A1, “CYCLOBENZAPRINE TREATMENT FOR SEXUAL DYSFUNCTION” (TONIX PHARMACEUTICALS HOLDING CORP., priority 2020, published 2021).
Counter-ions that a name gives are not always drawn.

Assays:
[1] = system: females with military-related PTSD; details: 5.6 mg dose (N=8) vs placebo (N=16), 12 weeks
Description: (§1) Methods: In this 12-week, multicenter, adaptive design, randomized controlled fixed-dose trial, 5.6 mg cyclobenzaprine-HCl (2×2.8 mg sublingual tablets, comprising a 75%±2% cyclobenzaprine-HCl and 25%±2% mannitol eutectic and a potassium phosphate dibasic anhydrous basifying agent) taken daily at bedtime was compared to placebo for the treatment of PTSD at 45 U.S. sites. […] A pre-planned interim analysis was conducted when about half the originally planned sample of 550 participants had outcome data.
(§2) The modified intention-to-treat (mITT) population, which included all randomized subjects with at least one post-baseline CAPS-5, included 125 participants treated with 5.6 mg dose per day the above cyclobenzaprine-HCl sublingual formulation and 127 participants on placebo were studied.
Sexual functioning was measured by Changes in Sexual Functioning Questionnaire short-form (CSFQ-14) which is a validated 14-item measure (Keller, McGarvey, Clayton, 2006). Parallel gender-specific versions are administered to males (CSFQ-14-M) and females (CSFQ-14-F), and each sex was analyzed separately. In addition to a total sexual functioning score, there are five sub-scales: desire/frequency, desire/interest, arousal/excitement, orgasm/complete, and pleasure. The scales range from (never) to (every day) and higher scores reflect greater levels of sexual functioning.
(§3) In the Phase 3 study in predominantly civilian PTSD, the inclusion criteria were broadened to include civilian participants with current PTSD, as determined by the CAPS-5. Accordingly, this study included 94% civilian trauma with a minimum baseline severity score of >33 on the CAPS-5. […] Thus, analyses were conducted on the interim analysis sample of 252 participants in the military Phase 3 study (89% male [n=225 M; n=27 F]; 100% military PTSD) and […] subjects in the civilian Phase 3 study (79% female [n=129 F; n=34 M]; 94% civilian PTSD).
(§4) The CSFQ-14 is a validated 14-item measure (Keller, McGarvey, Clayton, 2006) that has male and female versions which were analyzed separately. In addition to a total sexual functioning score, there are five sub-scales: desire/frequency, desire/interest, arousal/excitement, orgasm/complete, and pleasure. The items range on 5-point Likert scale from (never) to (every day). Higher scores reflect greater levels of sexual functioning.

[2] = system: participants with military-related PTSD; details: Phase 2 study, drug and placebo groups
Description: (§5) Three randomized, placebo-controlled and double-blind clinical trials of the above described 5.6 mg cyclobenzaprine-HCl sublingual formulation (2×2.8 mg tablets) were performed, a Phase 2 study and a Phase 3 study in military-related PTSD, and a Phase 3 study in predominantly civilian PTSD. […] The present retrospective analysis examined the activity of the cyclobenzaprine-HCl sublingual formulation on the Changes in Sexual Functioning Questionnaire short form (CSFQ-14) in the two Phase 3 studies.

[3] = system: participants with PTSD; details: 5.6 mg dose, all three trials (Phase 2 and two Phase 3)
Description: as §5

[4] = system: participants with PTSD; details: 5.6 mg sublingual dose, both Phase 3 studies
Description: as §5, §3

[5] = system: participants with military-related PTSD
Description: as §1, §2

[6] = system: females with military-related PTSD; details: female subgroup (10 active, 17 placebo), 5.6 mg per day sublingual, after 12 weeks of treatment
Description: as §1, §2

[7] = system: females with predominantly civilian PTSD; details: female completers, 5.6 mg dose (N=58) vs placebo (N=55), 12 weeks
Description: as §5, §3, §4

[8] = 5.6 mg sublingual daily, military Phase 3 study

SMILES: CN(C)CCC=C1c2ccccc2C=Cc2ccccc21 [cyclobenzaprine-HCl]
- CSFQ-14-F arousal/excitement subscale, Hedges' g effect size vs placebo [1]: 0.55
- CSFQ-14-F desire/frequency subscale, Hedges' g effect size vs placebo [1]: 0.46
- CSFQ-14-F desire/interest subscale, Hedges' g effect size vs placebo [1]: 0.63
- CSFQ-14-F orgasm/completion scale, effect vs placebo [1]: No effect
- CSFQ-14-F pleasure subscale, Hedges' g effect size vs placebo [1]: 0.54
- CSFQ-14-F total score, Hedges' g effect size vs placebo [1]: 0.49
- rates of adverse events related to sexual function [2]: very low rates
- activity on clinician- and patient-rated global PTSD symptoms (CGI and PGIC) [3]: encouraging activity
- severity of oral hypoaesthesia (most frequent AE) [4]: never rated as severe
- severity of somnolence (most common systemic AE) [4]: never rated as severe
- duration of oral hypoaesthesia (tongue/mouth numbness), the most frequent AE, post administration ([4]; generally transient): < 60 min
- participants with at least one AE leading to study discontinuation ([5]; 5.6 mg dose group, military Phase 3 study (placebo: two)): 8 participants
- duration of oral hypoaesthesia (tongue/mouth numbness), the most frequent AE, post administration ([5]; 5.6 mg sublingual daily at bedtime, military Phase 3 study, generally transient): < 60 min
- severity of oral hypoaesthesia (most frequent AE) [5, 8]: never rated as severe
- severity of somnolence (most common systemic AE) [5, 8]: never rated as severe
- observed mean improvement in CAPS-5 over placebo [6]: −9.1 units
- CSFQ-14-F arousal/excitement subscale, Hedges' g effect size vs placebo [7]: 0.33
- CSFQ-14-F desire/frequency subscale, Hedges' g effect size vs placebo [7]: 0.21
- CSFQ-14-F desire/interest subscale, Hedges' g effect size vs placebo [7]: 0.23
- CSFQ-14-F orgasm/completion subscale, Hedges' g effect size vs placebo [7]: 0.29
- CSFQ-14-F pleasure subscale, Hedges' g effect size vs placebo [7]: 0.19
- CSFQ-14-F total score, Hedges' g effect size vs placebo ([7]; p=0.07): 0.37
